Experimental data: patent publication US6232070A, “Pharmacological targeting of mRNA cap formation” (priority 1999, dated 2001)

What was measured:
Hcm1p = target: T1, Hcm1p (Homo sapiens, UniProt O43148); assay: Cap methyltransferase activity of recombinant Hcm1p, methylation of cap-labeled poly(A); assay type: biochemical
T1 construct: Δ120 retained 50% of the activity of full-length Hcm1p; His-tag (histidine-rich leader segment, pET16b) (N); made in house; host or cells: Escherichia coli BL21(DE3)
T1 sequence (O43148 whole entry): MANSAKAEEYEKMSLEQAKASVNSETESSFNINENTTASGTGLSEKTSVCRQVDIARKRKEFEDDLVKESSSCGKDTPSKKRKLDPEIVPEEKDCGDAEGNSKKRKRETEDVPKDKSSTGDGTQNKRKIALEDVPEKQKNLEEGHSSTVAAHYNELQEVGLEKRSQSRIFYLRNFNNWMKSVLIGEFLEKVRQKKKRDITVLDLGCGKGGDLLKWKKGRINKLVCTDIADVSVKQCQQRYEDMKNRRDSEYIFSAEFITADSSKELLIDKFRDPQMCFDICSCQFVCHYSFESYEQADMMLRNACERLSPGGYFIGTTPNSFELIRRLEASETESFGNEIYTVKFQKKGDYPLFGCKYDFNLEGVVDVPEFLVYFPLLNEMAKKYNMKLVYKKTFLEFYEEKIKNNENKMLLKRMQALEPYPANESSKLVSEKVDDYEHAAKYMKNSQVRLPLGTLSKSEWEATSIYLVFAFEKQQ

Mce1(1-210)p = target: T2, Mce1(1-210)p (Mus musculus, UniProt O55236); settings: at 0.5 mM divalent cation; 50 mM Tris buffer; cited from earlier work
T2 construct: The N-terminal portion of Mce1p from residues 1-210 is an autonomous RNA triphosphatase domain; made in house; host or cells: bacteria
T2 sequence (O55236 1-210): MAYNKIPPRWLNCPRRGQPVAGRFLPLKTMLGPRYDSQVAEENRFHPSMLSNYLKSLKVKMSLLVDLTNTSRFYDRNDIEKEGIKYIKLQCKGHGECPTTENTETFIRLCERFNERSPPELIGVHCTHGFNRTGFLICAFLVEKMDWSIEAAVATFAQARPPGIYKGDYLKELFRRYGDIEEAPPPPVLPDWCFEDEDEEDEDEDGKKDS

vaccinia triphosphatase = vaccinia triphosphatase (Vaccinia virus, UniProt P04298); settings: reported value; read-out: Km for ATP; cited from earlier work
LEF-4 = LEF-4 (Autographa californica nuclear polyhedrosis virus, UniProt P41477); settings: reported value; read-out: Km for ATP; cited from earlier work
Sequence of LEF-4 (P41477 whole entry): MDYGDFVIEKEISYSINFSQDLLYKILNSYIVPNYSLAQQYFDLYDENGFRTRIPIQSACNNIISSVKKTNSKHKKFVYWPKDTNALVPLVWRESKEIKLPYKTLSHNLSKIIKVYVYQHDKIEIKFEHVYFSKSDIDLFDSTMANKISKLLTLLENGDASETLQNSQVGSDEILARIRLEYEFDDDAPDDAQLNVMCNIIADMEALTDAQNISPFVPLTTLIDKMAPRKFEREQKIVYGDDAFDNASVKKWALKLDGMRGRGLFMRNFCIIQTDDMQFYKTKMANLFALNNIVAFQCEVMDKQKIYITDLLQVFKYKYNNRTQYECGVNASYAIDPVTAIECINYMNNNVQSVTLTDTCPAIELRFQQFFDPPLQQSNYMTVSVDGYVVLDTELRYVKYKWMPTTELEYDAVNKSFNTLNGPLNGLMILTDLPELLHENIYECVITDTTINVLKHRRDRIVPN

With Nc1ncnc2c1ncn2[C@@H]1O[C@H](CSCC[C@H](N)C(=O)O)[C@@H](O)[C@H]1O [AdoHcy, S-adenosylhomocysteine] the “effect on cap methylation in the presence of AdoMet” value (Hcm1p; 500 μM AdoHcy plus 50 μM AdoMet (FIG. 9, lane 4)) was “partially inhibitory”.

Compound C[S+](CC[C@H](N)C(=O)O)C[C@H]1O[C@@H](n2cnc3c(N)ncnc32)[C@H](O)[C@@H]1O (stereo partly shown) [AdoMet, S-adenosylmethionine] has a Km (Hcm1p; read-out: AdoMet concentration giving half-maximal activity, cap methylation as a function of AdoMet concentration) of ~25 µM.

In the case of [Cl][Mn][Cl] [MnCl2], the “inhibition of RNA triphosphatase activity” value (Mce1(1-210)p) is listed as 75%.

For Nc1ncnc2c1ncn2[C@@H]1O[C@H](COP(=O)(O)OP(=O)(O)OP(=O)(O)O)[C@@H](O)[C@H]1O [ATP], the Km (vaccinia triphosphatase) is given as 800 µM and the Km (LEF-4) is given as 43 µM.

For [Cl-].[Cl-].[Mg+2] [MgCl2], the reduction of methylation (Hcm1p; 1 mM magnesium) is listed as “an order of magnitude” and the “inhibition of RNA triphosphatase activity” value (Mce1(1-210)p) is listed as 75%.
